# In patent US9499493B2, “2,4-pyrimidinediamine compounds and their uses” (Rigel Pharmaceuticals, Inc., priority 2002, dated 2016):
# How the values were obtained:
# [1] = system: cultured human mast cells (CHMC); experiment: CHMC low cell density ionomycin activation: tryptase assay; assay type: cell-based
# [2] = system: cultured human mast cells (CHMC); experiment: CHMC low cell density IgE activation: tryptase assay; assay type: cell-based; conditions: anti-IgE
# Method in brief: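 Low-density CHMC assay: donor-adjusted 1000-1500 cells/well, MT buffer, 1 hr 37° C preincubation; anti-IgE stimulus 30 min 37° C versus MT-only controls; supernatant tryptase by substrate, 30 min RT.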
IC50 [1] [µM],IC50 [2] [µM],Structure (SMILES)
> 10,1.01,"Cn1nnnc1COc1ccc(Nc2ncc(F)c(Nc3cccc(O)c3)n2)cc1 [R920860, 5-Fluoro-N4-(3-hydroxyphenyl)-N2-[4-(1-methyl-1,2,3,4-tetrazol-5-yl)methyleneoxyphenyl]-2,4-pyrimidineamine]"
> 10,0.598,"Cn1nnnc1COc1ccc(Nc2ncc(F)c(Nc3cccc(O)c3)n2)cc1 [R920861, 5-Fluoro-N4-(3-hydroxyphenyl)-N2-[4-(1-methyl-1,2,3,4-tetrazol-5-yl)methyleneoxyphenyl]-2,4-pyrimidineamine]"
> 10,1.24,"Cc1cnc(Nc2ccc(OCc3nnn(C)n3)cc2)nc1Nc1cccc(O)c1 [R920893, N4-(3-Hydroxyphenyl)-5-methyl-N2-[4-(2-methyl-1,2,3,4-tetrazol-5-yl)methyleneoxyphenyl]-2,4-pyrimidineamine]"
5.57,0.888,"Cc1cnc(Nc2ccc(OCc3nnnn3C)cc2)nc1Nc1cccc(O)c1 [R920894, N4-(3-Hydroxyphenyl)-5-methyl-N2-[4-(1-methyl-1,2,3,4-tetrazol-5-yl)methyleneoxyphenyl]-2,4-pyrimidineamine]"
7.92,0.751,"Cn1nnc(COc2ccc(Nc3nccc(Nc4cccc(O)c4)n3)cc2)n1 [R920910, N4-(3-Hydroxyphenyl)-N2-[4-(2-methyl-1,2,3,4-tetrazol-5-yl)methyleneoxyphenyl]-2,4-pyrimidineamine]"
9.73,1.58,"Cn1nnnc1COc1ccc(Nc2nccc(Nc3cccc(O)c3)n2)cc1 [R920917, N4-(3-hydroxyphenyl)-N2-[4-(1-methyl-1,2,3,4-tetrazol-5-yl)methyleneoxyphenyl]-2,4-pyrimidineamine]"
> 10,0.898,"CN(C)C(=O)COc1cccc(Nc2ncc(F)c(Nc3ccc4c(c3)OCCO4)n2)c1 [R925755, N4-(3,4-Ethylenedioxyphenyl)-N2-[3-(N,N-dimethylamino)carbonylmethyleneoxyphenyl]-5-fluoro-2,4-pyrimidinediamine]"
> 10,8.9,"C[C@H](Nc1nc(Nc2ccc3c(c2)OCCO3)ncc1F)[C@H](O)c1ccccc1 [R925766, N2-(3,4-Ethylendioxyphenyl)-5-fluoro-N4-[(2R)-hydroxy-(1S)-methyl-2-phenylethyl)-2,4-pyrimidinediamine]"
> 10,> 10,"CCOC(=O)COc1ccc(Nc2ncc(-c3nnn[nH]3)c(Nc3ccc(OCC(=O)OCC)cc3)n2)cc1 [R925810, N2,N4-Bis(4-ethoxycarbonylmethyleneoxyphenyl)-5-(1,2,3,4-tetrazol-5-yl)-2,4-pyrimidinediamine]"
> 10,> 10,"CCOC(=O)c1cnc(Nc2ccc(OCC(=O)NCC3CC3)cc2)nc1Nc1cccc(O)c1 [R925838, N2-[4-(N-Cyclopropylmethylamino)carbonylmethyleneoxyphenyl]-5-ethoxycarbonyl-N4-(3-hydroxyphenyl)-2,4-pyrimidinediamine]"
> 10,> 10,"CCOC(=O)c1cnc(Nc2ccc(OCC(=O)NC)cc2)nc1Nc1cccc(O)c1 [R925839, 5-Ethoxycarbonyl-N4-(3-hydroxyphenyl)-N2-[4-(N-methylamino)carbonylmethyleneoxyphenyl]-2,4-pyrimidinediamine]"
> 10,> 10,"CCOC(=O)c1cnc(Nc2ccc(OCC(=O)NCC(O)CO)cc2)nc1Nc1cccc(O)c1 (stereo not shown) [R925840, N2-[4-(N-2,3-Dihydroxypropylamino)carbonylmethyleneoxyphenyl]-5-ethoxycarbonyl-N4-(3-hydroxyphenyl)-2,4-pyrimidinediamine]"
> 10,> 10,"COc1cccc(CNC(=O)COc2ccc(Nc3ncc(Br)c(Nc4ccc(OCC(=O)NCc5cccc(OC)c5)cc4)n3)cc2)c1 [R925841, N2,N4-Bis[4-[N-(3-methoxybenzylamino)carbonylmethyleneoxy]phenyl]-5-bromo-2,4-pyrimidinediamine]"
> 10,7.3,O=C(COc1ccc(Nc2nc(Nc3cccc(O)c3)ncc2Br)cc1)NCC1CC1 [R925842]
> 10,> 10,"COc1cccc(CNC(=O)COc2ccc(Nc3nc(Nc4cccc(O)c4)ncc3Br)cc2)c1 [R925843, 5-Bromo-N2-(3-hydroxyphenyl)-N4-[4-(N-3-methoxybenzylamino)carbonylmethyleneoxyphenyl]-2,4-pyrimidinediamine]"
> 10,5.1,"CNC(=O)COc1ccc(Nc2ncc(C#N)c(Nc3cccc(O)c3)n2)cc1 [R925844, 5-Cyano-N4-(3-hydroxyphenyl)-N2-[4-(N-methylamino)carbonylmethyleneoxyphenyl]-2,4-pyrimidinediamine]"
> 10,2.3,"N#Cc1cnc(Nc2cccc(O)c2)nc1Nc1ccc(OCC(=O)NCC2CC2)cc1 [R925845, 5-Cyano-N4-[4-(N-cyclopropylmethylamino)carbonylmethyleneoxyphenyl]-N2-(3-hydroxyphenyl)-2,4-pyrimidinediamine]"
> 10,> 10,"N#Cc1cnc(Nc2ccc(OCC(=O)NCC(O)CO)cc2)nc1Nc1cccc(O)c1 (stereo not shown) [R925846, 5-Cyano-N4-(3-hydroxyphenyl)-N2-[4-(N-2,3-dihydroxypropylamino)carbonylmethyleneoxyphenyl]-2,4-pyrimidinediamine]"

IC50 [1] [µM],IC50 [2] [µM],Structure (SMILES)
> 10,0.925,"CNC(=O)COc1ccc(Nc2nc(Nc3ccc4c(c3)OCCO4)ncc2Br)cc1 [R925851, 5-Bromo-N2-(3,4-ethylenedioxyphenyl)-N4-[4-(N-methylamino)carbonylmethyleneoxyphenyl]-2,4-pyrimidinediamine]"
> 10,> 10,"CCCNC(=O)COc1ccc(Nc2ncc(C#N)c(Nc3ccc(OCC(=O)NCCC)cc3)n2)cc1 [R925853, N2,N4-Bis[4-(N-n-propylamino)carbonylmethyleneoxyphenyl]-5-cyano-2,4-pyrimidinediamine]"
> 10,> 10,"N#Cc1cnc(Nc2ccc(OCC(=O)N3CCOCC3)cc2)nc1Nc1ccc(OCC(=O)N2CCOCC2)cc1 [R925854, N2,N4-Bis[4-(N-morphonlino)carbonylmethyleneoxyphenyl]-5-cyano-2,4-pyrimidinediamine]"
> 10,4.2,"N#Cc1cnc(Nc2ccc(OCC(=O)N3CCCCC3)cc2)nc1Nc1ccc(OCC(=O)N2CCCCC2)cc1 [R925855, N2,N4-Bis[4-(N-piperidino)carbonylmethyleneoxyphenyl]-5-cyano-2,4-pyrimidinediamine]"
7.3,8.05,"CCOC(=O)CNc1nc(Nc2ccc(OCC(=O)OCC)cc2)nc(C(=O)OCC)c1[N+](=O)[O-] [R925858, 6-Ethoxycarbonyl-N4-(ethoxycarbonylmethyl)-N2-(4-ethoxycarbonylmethyleneoxyphenyl)-5-nitro-2,4-pyrimidinediamine]"
> 10,> 10,"N#Cc1cnc(Nc2ccc(OCC(=O)NCC3CC3)cc2)nc1Nc1ccc(OCC(=O)NCC2CC2)cc1 [R925859, N2,N4-Bis[4-(N-cyclopropylmethylamino)carbonylmethyleneoxyphenyl]-5-cyano-2,4-pyrimidinediamine]"
> 10,> 10,"CCCCNC(=O)COc1ccc(Nc2ncc(C#N)c(Nc3ccc(OCC(=O)NCCCC)cc3)n2)cc1 [R925860, N2,N4-Bis[4-(N-n-butylamino)carbonylmethyleneoxyphenyl]-5-cyano-2,4-pyrimidinediamine]"
> 10,> 10,"CC(C)NC(=O)COc1ccc(Nc2ncc(C#N)c(Nc3ccc(OCC(=O)NC(C)C)cc3)n2)cc1 [R925861, N2,N4-Bis[4-(N-isopropylamino)carbonylmethyleneoxyphenyl]-5-cyano-2,4-pyrimidinediamine]"
> 10,0.7,"CCOC(=O)COc1ccc(Nc2ncc(C(F)(F)F)c(Nc3ccc(OCC(=O)OCC)cc3)n2)cc1 [R925862, N2,N4-Bis[4-(ethoxycarbonylmethyleneoxy)phenyl]-5-trifluoromethyl-2,4-pyrimidinediamine]"
4.5,1.4,"COC(=O)COc1cccc(Nc2ncc(F)c(Nc3cccc(OCC(=O)OC)c3)n2)c1 [R926255, N2,N4-Bis[(3-methoxycarbonylmethyleneoxy)phenyl]-5-fluoro-2,4-pyrimidinediamine]"
> 10,> 10,"CCOC(=O)c1cnc(Nc2ccc3cn[nH]c3c2)nc1Nc1ccc2cn[nH]c2c1 [R926320, N2,N4-Bis(3-indazol-6-yl)-5-ethoxycarbonyl-2,4-pyrimidinediamine]"
> 10,> 10,"CCOC(=O)c1cnc(Nc2cccc3cn[nH]c23)nc1Nc1cccc2cn[nH]c12 [R926321, N2,N4-Bis(3-indazol-7-yl)-5-ethoxycarbonyl-2,4-pyrimidinediamine]"
> 10,> 10,"CCOC(=O)c1cnc(Nc2ccc3c(c2)NC(=O)CO3)nc1Nc1ccc2c(c1)NC(=O)CO2 [R926325, N2,N4-Bis[6-(1,4-benzoxazine-3-onyl)]-5-ethoxycarbonyl-2,4-pyrimidinediamine]"
> 10,0.875,"Cc1ccc(Nc2ncc(F)c(Nc3ccc(C)c(O)c3)n2)cc1O [R926341, N2,N4-Bis(-3-hydroxy-4-methylphenyl)-5-fluoro-2,4-pyrimidinediaminediamine]"
> 10,10,"COCCOc1ccc(Nc2ncc(F)c(Nc3ccc(OCCOC)cc3)n2)cc1 [R926342, N2,N4-Bis[4-(2-methoxyethyleneoxy)phenyl]-5-fluoro-2,4-pyrimidinediamine]"
> 10,> 10,"COc1ccc(Nc2ncc(F)c(Nc3ccc(OC)c(-c4ccccc4)c3)n2)cc1-c1ccccc1 [R926399, N2,N4-Bis[(4-methoxy-3-phenyl)phenyl]-5-fluoro-2,4-pyrimidinediamine]"
> 10,> 10,"COc1ccc(-c2ccccc2)cc1Nc1ncc(F)c(Nc2cc(-c3ccccc3)ccc2OC)n1 [R926400, N2,N4-Bis[(2-methoxy-5-phenyl)phenyl]-5-fluoro-2,4-pyrimidinediamine]"
